Earlier results in US20080153788A1, “NOVEL COMPOSITION TO INCREASE MUSCLE STRENGTH” (ORAL DELIVERY TECHNOLOGIES, priority 2006, published 2008).

Legend:
[1] = humans; prior-art description
[2] = for injection

| SMILES | period over which concentration declines after the peak [1] | time to concentration peak after administration [1] | solubility in oily media [2] |
| --- | --- | --- | --- |
| C[C@]12CC[C@H]3[C@@H](CCC4=CC(O)CC[C@@]43C)[C@@H]1CC[C@@H]2O (stereo partly drawn) [4-androstene-3,17β-diol] | 3 to 4 h | ≤ 90 min |  |
| CCCCCCCCCCC(=O)O[C@H]1CC[C@H]2[C@H]3[C@H](CC[C@]12C)[C@H]1CCC(=O)C=C1C[C@H]3C [MENT undecanoate, (7α,17β)-7-methyl-17-[(1-α-oundecyl)oxy]estr-4en-3one] |  |  | good solubility |
